{
  "source": "patent US20240207338A1",
  "about": "“KETAMINE AND CANNABIS FOR THE TREATMENT OF EMOTIONAL DISORDERS” (Progressive Therapeutics Inc, priority 2021, published 2024)",
  "origin": "cited, not measured here",
  "data": [
    {"smiles": "CN[C@]1(c2ccccc2Cl)CCCCC1=O", "note": "[S-(+)-ketamine]", "values": [
      {"measurement": "potency for use in anesthesia relative to R-(−)-ketamine", "setting": "versus R-(−)-ketamine", "value": "twice as potent"}
    ]},
    {"smiles": "NC1(c2ccccc2Cl)CCCCC1=O", "note": "(centres unmarked) [norketamine]", "values": [
      {"measurement": "potency for use in anesthesia relative to ketamine", "setting": "versus ketamine", "value": "one third the potency"}
    ]}
  ]
}
